# Biological target: T1, Human FXa (Homo sapiens, UniProt P00742)
# T1 construct: purchased Enzyme Research Laboratories, Inc
# Experiment: Measuring human FXa inhibitory action (chromogenic substrate S-2222)
# Type: biochemical
# Conditions: Human FXa 0.019 U/ml, S-2222 0.4 mM, Tris-HCl buffer (pH 7.5), 37 °C, absorbance at 405 nm
# Experimental: The outstanding FXa inhibitory activity of the compounds of the present invention can be verified by the following tests. 1) Measurement of Enzyme Inhibitory Action a) Measuring human FXa inhibitory action In vitro FXa inhibitory activity is measured in accordance with the method of Kettner et al., J. Biol. Chem., 1990, 265, 18289-18297. Human FXa (Enzyme Research Laboratories, Inc., 0.019 U/ml) is mixed with a test compound diluted with dimethyl sulfoxide (DMSO) at various concentrations and a synthesis substrate S-2222 (Chromogenix AB, 0.4 mM) and incubated in a Tris-HCl buffer (pH 7.5) at 37 °C while the absorbance at 405 nm is measured continuously. To calculate the FXa inhibitory activity of the test cmpound, the initial reaction velocity is compared with the value for a control containing no test compound. The FXa inhibitory activity of a test compound is usually expressed as IC50. The compounds of the present invention were measured for their FXa inhibitory activity by the above-described method and they had potencies between 1 nM and 1µm in terms of IC50. […]
# T1 sequence (P00742 235-488 limits assumed): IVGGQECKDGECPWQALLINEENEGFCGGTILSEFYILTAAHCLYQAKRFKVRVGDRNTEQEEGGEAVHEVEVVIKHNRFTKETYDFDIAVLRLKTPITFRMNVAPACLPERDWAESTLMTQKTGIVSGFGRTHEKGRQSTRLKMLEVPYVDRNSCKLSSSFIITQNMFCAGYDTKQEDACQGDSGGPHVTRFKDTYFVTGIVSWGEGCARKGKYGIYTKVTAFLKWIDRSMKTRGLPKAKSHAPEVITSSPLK
# T1 sequence (P00742 41-179 partner limits assumed): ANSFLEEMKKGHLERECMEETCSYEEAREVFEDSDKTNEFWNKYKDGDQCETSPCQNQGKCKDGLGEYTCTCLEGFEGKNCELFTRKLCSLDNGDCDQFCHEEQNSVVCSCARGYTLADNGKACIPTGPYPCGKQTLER
row,IC50 [nM],SMILES
1,19,"CCOC(=O)C1CN(S(=O)(=O)c2ccc3cc(Cl)ccc3c2)CC(=O)N1CC1CCN(c2ccncc2)CC1 (stereo not drawn) [Example 39, 4-(6-chloronaphthalen-2-ylsulfonyl)-6-ethoxycarbonyl-1-[1-(4-pyridyl)piperidin-4-ylmethyl]piperazin-2-one]"
2,7.4,"CC(=O)NCC1CN(S(=O)(=O)c2ccc3cc(Cl)ccc3c2)CC(=O)N1CC1CCN(c2ccncc2)CC1 (stereo not drawn) [Example 55, 6-acetamidomethyl-4-(6-chloronaphthalen-2-ylsulfonyl)-1-[1-(4-pyridyl)piperidin-4-ylmethyl]piperazin-2-one]"
3,16,"CCOC(=O)[C@H]1CN(S(=O)(=O)c2ccc3cc(Cl)ccc3c2)CC(=O)N1CC1CCN(c2ccncc2)CC1 [Example 60, (R)-4-(6-chloronaphthalen-2-ylsulfonyl)-6-ethoxycarbonyl-1-[1-(4-pyridyl)piperidin-4-ylmethyl]piperazin-2-one]"
4,70,"CCOC(=O)[C@@H]1CN(S(=O)(=O)c2ccc3cc(Cl)ccc3c2)CC(=O)N1CC1CCN(c2ccncc2)CC1 [Example 61, (S)-4-(6-chloronaphthalen-2-ylsulfonyl)-6-ethoxycarbonyl-1-[1-(4-pyridyl)piperidin-4-ylmethyl]piperazin-2-one]"

# The remaining lines, values behind:
row,SMILES,IC50 [nM]
1,"O=C(C1CCN(c2ccncc2)CC1)N1CCN(S(=O)(=O)/C=C/c2ccc(Cl)cc2)CC1 [Control, 1-((E)-4-chlorostyrylsulfonyl)-4-[1-(4-pyridyl)piperidin-4-ylcarbonyl]piperazine, reference compound]",150
2,"O=C(O)C1CN(S(=O)(=O)c2ccc3cc(Cl)ccc3c2)CC(=O)N1CC1CCN(c2ccncc2)CC1 (stereo not drawn) [Example 40, 6-carboxy-4-(6-chloronaphthalen-2-ylsulfonyl)-1-[1-(4-pyridyl)piperidin-4-ylmethyl]piperazin-2-one]",7.4
3,NC(=O)C1CN(S(=O)(=O)c2ccc3cc(Cl)ccc3c2)CC(=O)N1CC1CCN(c2ccncc2)CC1 (stereo not drawn) [Example 46],17
4,"O=C1CN(S(=O)(=O)c2ccc3cc(Cl)ccc3c2)CC(C=NO)N1CC1CCN(c2ccncc2)CC1 (stereo not drawn) [Example 47, 6-aldoximyl-4-(6-chloronaphthalen-2-ylsulfonyl)-1-[1-(4-pyridyl)piperidin-4-ylmethyl]piperazin-2-one]",13
5,"NCC1CN(S(=O)(=O)c2ccc3cc(Cl)ccc3c2)CC(=O)N1CC1CCN(c2ccncc2)CC1 (stereo not drawn) [Example 52, 6-aminomethyl-4-(6-chloronaphthalen-2-ylsulfonyl)-1-[1-(4-pyridyl)piperidin-4-ylmethyl]piperazin-2-one]",12
6,"CN(C)CC1CN(S(=O)(=O)c2ccc3cc(Cl)ccc3c2)CC(=O)N1CC1CCN(c2ccncc2)CC1 (stereo not drawn) [Example 54, 4-(6-chloronaphthalen-2-ylsulfonyl)-6-dimethylaminomethyl-1-[1-(4-pyridyl)piperidin-4-ylmethyl]piperazin-2-one]",8.5

# Tested on: rat plasma
# Experiment: Measuring extrinsic coagulation time (PT) in vitro in rat plasma
# Conditions: 37°C 3 minutes, thromboplastin reagent, concentration required to double the coagulation time
# Experimental: The compounds synthesized in the Examples of the present invention had FXa inhibitory activities at least equal to that of the control compound. 2) Measurement of Anticoagulation Activity (in vitro) a) Measuring extrinsic coagulation time Thromboplastin time (PT) is measured in the presence of test compounds diluted at various concentrations. A test compound diluted with DMSO at various concentrations is mixed with rat plasma and incubated at 37°C for 3 minutes. Then, a thromboplastin reagent is added and the coagulation time is measured. The anticoagulation activity of the test compound is indicated in terms of the concentration required to double the coagulation time for the case where no test compound is added. […]
row,SMILES,PT Doubling Concentration [µM]
1,"CCOC(=O)C1CN(S(=O)(=O)c2ccc3cc(Cl)ccc3c2)CC(=O)N1CC1CCN(c2ccncc2)CC1 (stereo not drawn) [Example 39, 4-(6-chloronaphthalen-2-ylsulfonyl)-6-ethoxycarbonyl-1-[1-(4-pyridyl)piperidin-4-ylmethyl]piperazin-2-one]",2.8
2,"O=C(O)C1CN(S(=O)(=O)c2ccc3cc(Cl)ccc3c2)CC(=O)N1CC1CCN(c2ccncc2)CC1 (stereo not drawn) [Example 40, 6-carboxy-4-(6-chloronaphthalen-2-ylsulfonyl)-1-[1-(4-pyridyl)piperidin-4-ylmethyl]piperazin-2-one]",2.7
